In patent publication US20240261295A1, “COMBINATIONS OF WEE1 INHIBITORS AND ANTI-CD47 ANTIBODIES” (Recurium IP Holdings, LLC, priority 2021, published 2024):

Tested on: RPMI-8226 cells
Assay: RPMI-8226 xenograft model, tumor volume
Assay type: in vivo, Mice
Settings: ZN-c3 60 mg/kg p.o. qd×21, single agent, RPMI-8226 subcutaneous xenograft
Method: Mice were inoculated with RPMI-8226 cells subcutaneously on the right flank with the single cell suspension of 95% viable tumor cells ([…]) in 100 μL RPMI 1640 Matrigel mixture (1:1 ratio) without serum for the tumor development. The treatment was started when the mean tumor size reached approximately 200 mm^3, with individual tumor size ranging from 185-235 mm^3. Animals were randomly distributed into treatment groups of 10 animals each and dosed with vehicle and indicated compounds at the indicated dosage and frequency shown in FIG. 2 and Table 1. In FIG. 2, the bottom line with circles is ZN-c3 60 mg/kg p.o. qd×21+Anti-CD47 20 mg/kg ip BIW×3. Anti-CD47 was obtained from Bio X Cell (clone B6.H12, catalog number BE0019-1). Tumor volumes were evaluated twice per week to calculate tumor volume over time, and the mice were weighed twice per week as a surrogate for signs of toxicity. Tumor growth inhibition (TGI) was calculated using the following equation TGI=(1−(Td−T0)/(Cd−C0))×100%. Td and Cd are the mean tumor volumes of the treated and control animals, and T0 and C0 are the mean tumor volumes of the treated and control animals at the start of the experiment. The tumor regression was defined as individual tumor volume (TV) decrease (terminal TV compared to initial TV). The percent tumor regression was calculated using the formula: (1−(Td/T0))×100%.

C=CCn1c(=O)c2cnc(Nc3ccc(N4CCN(C)CC4)cc3)nc2n1-c1ccc2c(n1)[C@@](O)(CC)CC2 [ZN-c3]
TGI % (Day 21): 61%
